Experimental data: ChEMBL document CHEMBL5244219, “Recent developments of quinolone-based derivatives and their activities against Escherichia coli” (Eur J Med Chem, 2018)
Converted amounts (≈) assume the structure as drawn.

Columns and labels:
Type in all cases: functional
[1] = system: Escherichia coli; experiment: Antibacterial activity against Escherichia coli NCTC 10418 assessed as bacterial growth inhibition incubated for 18 to 20 hrs by agar dilution method; conditions: time 18-20 hrs
[2] = system: Escherichia coli; experiment: Antibacterial activity against Escherichia coli ATCC 8739 assessed as bacterial growth inhibition incubated for 24 hrs by two-serial dilution method
[3] = system: Escherichia coli; experiment: Antibacterial activity against Escherichia coli 2010-05 assessed as bacterial growth inhibition measured after 24 hrs by agar dilution method
[4] = system: Escherichia coli; experiment: Antibacterial activity against Escherichia coli NIHJ JC-2 assessed as bacterial growth inhibition measured after 24 hrs by agar dilution method
[5] = system: Escherichia coli; experiment: Antibacterial activity against Escherichia coli 2010-29 assessed as bacterial growth inhibition measured after 24 hrs by agar dilution method
[6] = system: Escherichia coli; experiment: Antibacterial activity against Escherichia coli NIHJ assessed as bacterial growth inhibition measured after 24 hrs by agar dilution method
[7] = system: Escherichia coli; experiment: Antibacterial activity against Escherichia coli assessed as bacterial growth inhibition incubated for 18 to 20 hrs by agar dilution method; conditions: time 18-20 hrs
[8] = system: Escherichia coli; experiment: Antibacterial activity against Escherichia coli assessed as bacterial growth inhibition incubated for 16 to 24 hrs by absorbance analysis; conditions: time 16-24 hrs
[9] = system: Escherichia coli; experiment: Antibacterial activity against Escherichia coli assessed as zone of inhibition at 500 to 1000 ug per disc; conditions: dose 500-1000 µg
[10] = system: Escherichia coli; experiment: Antibacterial activity against Escherichia coli assessed as bacterial growth inhibition measured after 24 hrs by broth micro dilution method
[11] = system: Escherichia coli; experiment: Antibacterial activity against Escherichia coli assessed as bacterial growth inhibition by microdilution method
[12] = system: Escherichia coli; experiment: Antibacterial activity against Escherichia coli MTCC 739 assessed as bacterial growth inhibition incubated for 24 hrs by spectrophotometric method
[13] = system: Escherichia coli; experiment: Antibacterial activity against Escherichia coli H560 assessed as bacterial growth inhibition
[14] = system: Escherichia coli; experiment: Antibacterial activity against Escherichia coli KC-14 infected in po dosed mouse assessed as bacterial growth inhibition; conditions: Escherichia coli, KC-14, po, read-out: ED50

Question: For `CCn1cc(C(=O)O)c(=O)c2cc(F)c(N3CCN(CN4C(=O)C(=O)c5cc(Br)ccc54)CC3)cc21`, which MIC [1] is on record?
Answer: Its MIC is ≤ 0.018 µg/mL.

Question: For `CCn1cc(C(=O)O)c(=O)c2cc(F)c(N3CCN(CN4C(=O)C(=O)c5ccccc54)CC3)cc21`, which MIC [1] is on record?
Answer: Its MIC is ≤ 0.018 µg/mL.

Question: For `O=C(O)c1cn(C2CC2)c2c(cc(F)c3nc(-c4ccncc4)[nH]c32)c1=O`, which MIC [2] is on record?
Answer: The MIC was > 3 µg/mL.

Question: Which MIC [2] does the source give for `O=C(O)c1cn(C2CC2)c2c(cc(F)c3nc(-c4ccsc4)[nH]c32)c1=O` here?
Answer: Its MIC is > 3 µg/mL.

Question: Which MIC [3] does the source give for `CCNC1CN(c2c(F)cc3c(=O)c(C(=O)O)cn(-c4cc(N)c(F)cc4CO)c3c2Cl)C1` here?
Answer: Its MIC is 1 µg/mL (≈ 2.09 µM).

Question: What about the MIC [4] of the same compound?
Answer: The MIC was 0.008 µg/mL (≈ 0.0167 µM).

Question: And the MIC [5]?
Answer: The MIC was 1 µg/mL (≈ 2.09 µM).

Question: What about the MIC [6] of the same compound?
Answer: Its MIC is 0.008 µg/mL (≈ 0.0167 µM).

Question: For `COc1cc(Cc2cnc(/N=C3\C(=O)N(CN4CCN(c5c(F)cc6c(=O)c(C(=O)O)cn(C7CC7)c6c5OC)CC4C)c4ccccc43)nc2N)cc(OC)c1OC` (stereo not given), which MIC [7] is on record?
Answer: Its MIC is 0.02 µg/mL (≈ 0.0248 µM).

Question: Which results are given for `Nc1cc(-n2cc(C(=O)O)c(=O)c3cc(F)c(N4CC(N)C4)c(Cl)c32)c(CO)cc1F`?
Answer: MIC [3]: 1 µg/mL (≈ 2.22 µM); MIC [4]: 0.008 µg/mL (≈ 0.0177 µM); MIC [5]: 1 µg/mL (≈ 2.22 µM); MIC [6]: 0.008 µg/mL (≈ 0.0177 µM)

Question: For `Nc1cc(-n2cc(C(=O)O)c(=O)c3cc(F)c(N4CC(O)C4)c(Cl)c32)c(CO)cc1F`, which MIC [3] is on record?
Answer: The MIC was 1 µg/mL (≈ 2.21 µM).

Question: And the MIC [4]?
Answer: The MIC was 0.008 µg/mL (≈ 0.0177 µM).

Question: What about the MIC [5] of the same compound?
Answer: Its MIC is 1 µg/mL (≈ 2.21 µM).

Question: What about the MIC [6] of the same compound?
Answer: The MIC was 0.008 µg/mL (≈ 0.0177 µM).

Question: `CCn1cc(C(=O)O)c(=O)c2cc(F)c(N3CCN(CN4C(=O)/C(=N/NC(N)=S)c5cc(Cl)ccc54)CC3)cc21` was tested. Which MIC [1] did it give?
Answer: The MIC was ≤ 0.018 µg/mL.

Question: With `Cc1[nH]c2ccc(Cl)cc2c(=O)c1CC(=O)O` as the compound, how does the MIC [8] read?
Answer: The MIC was 8.97 µg/mL (≈ 35.6 µM).

Question: `Cc1[nH]c2ccccc2c(=O)c1CC(=O)O` was tested. Which MIC [8] did it give?
Answer: Its MIC is 8.97 µg/mL (≈ 41.3 µM).

Question: Which “diameter of the inhibition zone (DIZ)” value [9] does the source give for `COc1ccc2[nH]c(=O)c3cnn(Cc4ccccc4)c3c2c1` here?
Answer: Its value is 7 mm.

Question: Which MIC [10] does the source give for `CCn1cc(C(=O)O)c(=O)c2cc(F)c(-n3cc(CO[C@H]4O[C@@H](C)[C@H](OC(C)=O)[C@@H](OC(C)=O)[C@H]4OC(C)=O)nn3)c(F)c21` here?
Answer: Its MIC is > 6.25 µg/mL.

Question: For `CC(=O)NC[C@H]1CN(c2ccc(N[C@@H]3CCN(c4cc5c(cc4F)c(=O)c(C(=O)O)cn5C4CC4)C3)c(F)c2)C(=O)O1`, which MIC [11] is on record?
Answer: Its MIC is ≥ 0.5 µg/mL.

Question: How did the MIC [8] turn out when `Cc1[nH]c2c(C)cc([N+](=O)[O-])cc2c(=O)c1CC(=O)O` was run?
Answer: Its MIC is 8.97 µg/mL (≈ 32.5 µM).

Question: With `Cn1c(=O)cc(OCc2nn(CN3CCN(c4cccc(C(F)(F)F)c4)CC3)c(=S)o2)c2ccccc21` as the compound, how does the MIC [12] read?
Answer: The MIC was 25 µg/mL (≈ 47 µM).

Question: Which MIC [12] does the source give for `Cn1c(=O)cc(OCc2nn(CN3CCN(c4ccc(C(F)(F)F)cc4)CC3)c(=S)s2)c2ccccc21` here?
Answer: The MIC was 25 µg/mL (≈ 45.7 µM).

Question: `CC(=O)NC[C@H]1CN(c2ccc(N[C@@H]3CCN(c4nc5c(cc4F)c(=O)c(C(=O)O)cn5C4CC4)C3)c(F)c2)C(=O)O1` was tested. Which MIC [11] did it give?
Answer: The MIC was ≥ 0.5 µg/mL.

Question: Which MIC [11] does the source give for `CC(=O)NC[C@H]1CN(c2ccc(NC3CN(c4nc5c(cc4F)c(=O)c(C(=O)O)cn5C4CC4)C3)c(F)c2)C(=O)O1` here?
Answer: The MIC was ≥ 0.5 µg/mL.

Question: For `COc1ccc(N2CCN(Cn3nc(COc4cc(=O)n(C)c5ccccc45)sc3=S)CC2)cc1`, which MIC [12] is on record?
Answer: The MIC was 25 µg/mL (≈ 49.1 µM).

Question: How did the MIC [13] turn out when `NC1CCN(c2nc3c(cc2F)c(=O)c(C(=O)O)cn3-c2ccc(F)cc2F)C1` (stereo not given) [TOSUFLOXACIN] was run?
Answer: Its MIC is ≤ 0.003 µg/mL.

Question: With `O=c1[nH]c2ccccc2c2c1cnn2Cc1ccccc1` as the compound, how does the “diameter of the inhibition zone (DIZ)” value [9] read?
Answer: The value was 7 mm.

Question: `CNC1(C)CN(c2c(F)cc3c(=O)c(C(=O)O)cn(-c4cc(N)c(F)cc4CO)c3c2Cl)C1` was tested. Which MIC [3] did it give?
Answer: The MIC was 1 µg/mL (≈ 2.09 µM).

Question: What about the MIC [4] of the same compound?
Answer: The MIC was 0.008 µg/mL (≈ 0.0167 µM).

Question: What about the MIC [5] of the same compound?
Answer: Its MIC is 1 µg/mL (≈ 2.09 µM).

Question: And the MIC [6]?
Answer: The MIC was 0.008 µg/mL (≈ 0.0167 µM).

Question: Which MIC [1] does the source give for `CCn1cc(C(=O)O)c(=O)c2cc(F)c(N3CCN(CN4C(=O)/C(=N/NC(N)=S)c5ccccc54)CC3)cc21` here?
Answer: Its MIC is ≤ 0.018 µg/mL.

Question: How did the “diameter of the inhibition zone (DIZ)” value [9] turn out when `O=c1[nH]c2ccc(Cl)cc2c2c1cnn2Cc1ccccc1` was run?
Answer: The value was 7 mm.

Question: `CCn1cc(C(=O)O)c(=O)c2cc(F)c(-n3cc(CO[C@H]4O[C@H](COC(C)=O)[C@@H](OC(C)=O)[C@H](OC(C)=O)[C@H]4OC(C)=O)nn3)c(F)c21` was tested. Which MIC [10] did it give?
Answer: Its MIC is > 6.25 µg/mL.

Question: Which “diameter of the inhibition zone (DIZ)” value [9] does the source give for `O=c1[nH]c2ccc(F)cc2c2c1cnn2Cc1ccccc1` here?
Answer: The value was 7 mm.

Question: With `O=C(O)c1cn(C2CC2)c2c(cc(F)c3nc(-c4ccoc4)[nH]c32)c1=O` as the compound, how does the MIC [2] read?
Answer: The MIC was > 3 µg/mL.

Question: Which ED50 [14] does the source give for `CCOC(=O)c1c2n(c3cc(N4CCN(C(C)=O)CC4)c(F)cc3c1=O)C(C)S2` (stereo not given) here?
Answer: The ED50 was 0.89 mg/kg.

Question: Which MIC [11] does the source give for `CC(=O)NC[C@H]1CN(c2ccc(N3CCN(c4cc5c(cc4F)c(=O)c(C(=O)O)cn5C4CC4)CC3)c(F)c2)C(=O)O1` here?
Answer: Its MIC is ≥ 0.5 µg/mL.

Question: How did the “diameter of the inhibition zone (DIZ)” value [9] turn out when `Cn1c(=O)c(C(=O)/C=C/c2ccco2)c(O)c2ccccc21` was run?
Answer: Its value is 7 mm.

Question: How did the MIC [2] turn out when `O=C(O)c1cn(C2CC2)c2c(cc(F)c3nc(-c4ccco4)[nH]c32)c1=O` was run?
Answer: Its MIC is > 3 µg/mL.

Question: Which MIC [2] does the source give for `O=C(O)c1cn(C2CC2)c2c(cc(F)c3nc(-c4ccc(F)cc4)[nH]c32)c1=O` here?
Answer: Its MIC is > 3 µg/mL.

Question: For `Cc1ccc2[nH]c(C)c(CC(=O)O)c(=O)c2c1`, which MIC [8] is on record?
Answer: Its MIC is 8.97 µg/mL (≈ 38.8 µM).

Question: For `CNC1CN(c2c(F)cc3c(=O)c(C(=O)O)cn(-c4cc(N)c(F)cc4CO)c3c2Cl)C1`, which MIC [3] is on record?
Answer: The MIC was 2 µg/mL (≈ 4.3 µM).

Question: And the MIC [4]?
Answer: The MIC was 0.008 µg/mL (≈ 0.0172 µM).

Question: And the MIC [5]?
Answer: Its MIC is 2 µg/mL (≈ 4.3 µM).

Question: And the MIC [6]?
Answer: Its MIC is 0.008 µg/mL (≈ 0.0172 µM).
